From patent US20030199671A1, “Binding molecules for Fc-region polypeptides” (priority 2001, published 2003)
“And” between values parts separate entries of the source, which are not always exact repeats. Identical values can stand only once. Like-named read-outs stand apart in the source and are kept apart here.

Tests used:
IgG3 = IgG3 (Homo sapiens, UniProt P01860); assay type: binding; design: all human subtypes derived from myeloma patients; purchased Calbiochem 400124; host or cells: myeloma patients
Chain of IgG3 (P01860 1-377 isoform P01860-1): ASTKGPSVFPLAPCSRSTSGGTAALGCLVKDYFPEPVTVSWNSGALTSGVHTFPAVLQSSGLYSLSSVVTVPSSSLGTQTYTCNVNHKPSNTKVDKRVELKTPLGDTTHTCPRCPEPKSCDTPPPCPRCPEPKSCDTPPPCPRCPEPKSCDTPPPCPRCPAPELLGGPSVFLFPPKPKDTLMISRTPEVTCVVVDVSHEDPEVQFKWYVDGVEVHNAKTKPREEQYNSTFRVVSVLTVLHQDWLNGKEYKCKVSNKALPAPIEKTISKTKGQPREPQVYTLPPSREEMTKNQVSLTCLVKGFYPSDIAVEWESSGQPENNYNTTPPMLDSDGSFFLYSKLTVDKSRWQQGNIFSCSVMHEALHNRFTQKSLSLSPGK
Procedure: In addition, the following targets, all unfractionated IgGs, were also evaluated with selected immobilized peptides for species specificity characterization in a similar format: human IgG, goat IgG, bovine IgG, and mouse IgG (Sigma, product nos. I4506, I5256, I5506, and I15381, respectively). In addition, 10 μl aliquots of hydrolyzed NHS-activated Sepharose 4 Fast Flow (Amersham Pharmacia Biotech, product no. 17-0906-01) and immobilized recombinant Protein A (RepliGen Corp., product no. IPA-400) were also assayed as negative and positive controls. IgG targets were diluted into 10 mM phosphate buffer containing 150 mM NaCl and 0.01% Tween 20, pH 7.2 (PBST) or 50 mM Tris buffer containing, 150 mM NaCl and 0.01% Tween-20, pH 7.5 (TBST). Batch (static) binding and elution studies were conducted in a 96-well assay filterplate (Millipore MultiScreen-HV, with 0.45 μm Durapore membrane, product no. MAHVN4510). The target was allowed to incubate with the resin for 1-1.5 hours with shaking at room temperature. Unbound target was collected by centrifugation of samples from the assay plate directly into a low-UV absorbing 96-well collection plate (Costar, product no. 3635 or Greiner, product no. 655801). The unbound target was then quantitated by reading the absorbance at 280 nm (normalized to 1 cm pathlength, 1.4 mg/ml A280 extinction coefficient) of the collection plate on a microplate spectrophotometer (Molecular Devices Corp., SPECTRAmax PLUS) against a buffer blank.
The percentage bound target was determined by subtracting the mass determined as unbound from the corresponding condition's control values (control non-filtered added directly to the collection plate and/or the negative control). The assay plate was washed (3×) with 200 μl of binding buffer by vacuum filtration followed by addition of 100 μl of various elution conditions (e.g.: 0.1 M sodium bicarbonate buffer, pH 8.5 and/or 0.1 M sodium citrate buffer, pH 4.0). After a 30-60 minute incubation with shaking at room temperature, the eluted target was collected by centrifugation of the assay plate into another collection plate and quantitated in a similar manner. Percent elution of total load was then determined to characterize elution recovery efficiency under various conditions. The assay plate was then washed (3×) with 200 μl of binding buffer by vacuum filtration followed by addition of a resin cleaning condition (e.g., 0.1M CAPS buffer (3-[Cyclohexylamino]-1-propane-sulfonic acid), pH 11.5, to regenerate the resin for re-use. Percentage mass balance determination was calculated to be 90-100% on average.

IgG4 = IgG4 (Homo sapiens, UniProt P01861); assay type: binding; design: all human subtypes derived from myeloma patients; purchased Calbiochem 400126; host or cells: myeloma patients
Chain of IgG4 (P01861 1-327 isoform P01861-1): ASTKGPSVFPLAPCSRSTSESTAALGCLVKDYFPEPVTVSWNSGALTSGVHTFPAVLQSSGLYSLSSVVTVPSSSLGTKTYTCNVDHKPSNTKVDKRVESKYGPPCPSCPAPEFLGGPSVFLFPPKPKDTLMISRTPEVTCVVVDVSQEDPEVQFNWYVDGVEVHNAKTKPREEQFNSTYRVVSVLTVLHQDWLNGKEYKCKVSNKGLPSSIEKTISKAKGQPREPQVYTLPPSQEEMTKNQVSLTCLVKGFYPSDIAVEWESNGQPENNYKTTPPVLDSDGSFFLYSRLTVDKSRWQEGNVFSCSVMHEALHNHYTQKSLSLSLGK
In short: (§1)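 Read-out is A280 of unbound IgG (1.4 mg/ml extinction coefficient), with percent bound derived against non-filtered or negative controls. Targets were incubated with immobilized peptides in PBST or TBST for 1-1.5 h at room temperature. Hydrolyzed Sepharose and immobilized Protein A serve as negative and positive controls.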

human IgG1 = biological target: T1, human IgG1 (Homo sapiens, UniProt P01857); assay type: binding
T1 construct: all human subtypes derived from myeloma patients; purchased Calbiochem 400120; host or cells: myeloma patients
T1 sequence (P01857 1-330 isoform P01857-1): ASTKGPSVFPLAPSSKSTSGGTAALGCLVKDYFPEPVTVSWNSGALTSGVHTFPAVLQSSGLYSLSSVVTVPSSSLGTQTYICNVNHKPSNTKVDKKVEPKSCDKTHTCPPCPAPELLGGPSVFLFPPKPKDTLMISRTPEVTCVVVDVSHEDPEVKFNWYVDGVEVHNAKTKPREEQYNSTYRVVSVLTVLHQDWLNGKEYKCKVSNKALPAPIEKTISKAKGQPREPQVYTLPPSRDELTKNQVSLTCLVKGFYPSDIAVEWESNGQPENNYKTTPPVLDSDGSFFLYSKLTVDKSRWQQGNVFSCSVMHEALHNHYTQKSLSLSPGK
In short: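 Static binding, peptide resin + IgG, 1-1.5 h RT with shaking, PBST pH 7.2 or TBST pH 7.5. Flow-through read at A280 vs buffer blank; % bound = control minus unbound. Elution at pH 8.5 bicarbonate and/or pH 4.0 citrate, 30-60 min.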

human IgG = assay type: binding
In short: (§2)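 Percent bound = control mass minus unbound mass, with unbound IgG read at A280 after 1–1.5 h room-temperature incubation with the peptide resin in PBST pH 7.2 or TBST pH 7.5. Bound IgG was eluted 30–60 min with 0.1 M citrate pH 4.0 and/or bicarbonate pH 8.5. Recovery is given as percent of total load.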

human IgG2 = biological target: T2, human IgG2 (Homo sapiens, UniProt P01859); assay type: binding
T2 construct: all human subtypes derived from myeloma patients; purchased Calbiochem 400122; host or cells: myeloma patients
T2 sequence (P01859 1-326 isoform P01859-1): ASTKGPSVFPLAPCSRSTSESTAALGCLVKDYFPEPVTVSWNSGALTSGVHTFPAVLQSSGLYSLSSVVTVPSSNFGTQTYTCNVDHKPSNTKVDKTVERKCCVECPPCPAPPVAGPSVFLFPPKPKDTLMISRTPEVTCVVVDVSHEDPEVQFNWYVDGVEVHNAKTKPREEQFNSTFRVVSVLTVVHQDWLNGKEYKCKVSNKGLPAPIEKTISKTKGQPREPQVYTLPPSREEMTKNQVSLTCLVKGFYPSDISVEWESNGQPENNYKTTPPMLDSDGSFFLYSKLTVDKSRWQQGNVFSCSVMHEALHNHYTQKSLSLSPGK
In short: as §1

mouse IgG = assay type: binding
In short: as §2

bovine IgG = assay type: binding
In short: as §2

goat IgG = assay type: binding
In short: as §2

human plasma IgG3 = biological target: T3, human plasma IgG3 (Homo sapiens, UniProt P01860); experiment: Fluorescence anisotropy binding, Oregon Green labeled peptide
T3 construct: the individual human plasma IgG isoforms: IgG1, IgG2, IgG3, or IgG4; purchased Calbiochem; host or cells: human plasma
T3 sequence (P01860 1-377 isoform P01860-1): as the sequence (P01860 1-377 isoform P01860-1) above
Procedure: (§3) Peptides were synthesized by BACHEM and then Oregon Green labeled and HPLC purified. Binding studies were performed using human plasma IgG isoforms: IgG1, IgG2, IgG3, and IgG4, obtained from Calbiochem.
(§4) Binding studies were carried out at either pH 4.0, 7.5, or 9.5, with or without salt in the following buffers:
(§5) 2) 10 mM Sodium Citrate, 500 mM Sodium Chloride, 0.01% Tween 20, pH 4.0;
(§6) 4) […], 500 mM Sodium Chloride, 0.01% Tween 20, pH 7.5;
(§7) 5) 10 mM Sodium Bicarbonate, 0.01% Tween 20, pH 9.5;
(§8) 6) 10 mM Sodium Bicarbonate, 500 mM Sodium Chloride, 0.01% Tween 20, pH 9.5; or […]

human plasma IgG4 = biological target: T4, human plasma IgG4 (Homo sapiens, UniProt P01861); experiment: as above
T4 construct: the individual human plasma IgG isoforms: IgG1, IgG2, IgG3, or IgG4; purchased Calbiochem; host or cells: human plasma
T4 sequence (P01861 1-327 isoform P01861-1): as the sequence (P01861 1-327 isoform P01861-1) above
Procedure: as §3, §4, §5, §6, §7, §8

human plasma IgG1 = biological target: T5, human plasma IgG1 (Homo sapiens, UniProt P01857); experiment: as above
T5 construct: the individual human plasma IgG isoforms: IgG1, IgG2, IgG3, or IgG4; purchased Calbiochem; host or cells: human plasma
T5 sequence (P01857 1-330 isoform P01857-1): as the sequence (P01857 1-330 isoform P01857-1) above
Procedure: as §3, §4, §5, §6, §7, §8

human plasma IgG2 = biological target: T6, human plasma IgG2 (Homo sapiens, UniProt P01859); experiment: as above
T6 construct: the individual human plasma IgG isoforms: IgG1, IgG2, IgG3, or IgG4; purchased Calbiochem; host or cells: human plasma
T6 sequence (P01859 1-326 isoform P01859-1): as the sequence (P01859 1-326 isoform P01859-1) above
Procedure: as §3, §4, §5, §6, §7, §8

[1] = Table 9, immobilized peptide, 5.0 mg/ml resin load
[2] = Table 13, average ligand density 1.8 μM/ml
[3] = Table 14, average ligand density 1.8 μM/ml

CC(=O)N[C@@H](C)C(=O)NCC(=O)N[C@H](C(=O)N[C@@H](Cc1ccc(O)cc1)C(=O)N[C@@H](Cc1c[nH]c2ccccc12)C(=O)N[C@H]1CSSC[C@@H](C(=O)N[C@@H](CC(=O)O)C(=O)N2CCC[C@H]2C(=O)N[C@@H](C)C(=O)N2CCC[C@H]2C(=O)NCC(=O)N2CCC[C@H]2C(=O)N[C@@H](CCC(=O)O)C(=O)NCC(=O)NCC(=O)NCC(=O)N[C@@H](CCCCN)C(N)=O)NC(=O)[C@@H]2CCCN2C(=O)[C@H](CC(C)C)NC(=O)[C@H](CCC(=O)O)NC(=O)[C@H](Cc2c[nH]c3ccccc23)NC(=O)[C@H](Cc2ccccc2)NC(=O)[C@H]([C@@H](C)O)NC1=O)[C@@H](C)O [DX404]
% IgG Capture - Batch Binding, Human IgG3 (IgG3; [1]): 74% | % IgG Capture - Batch Binding, Human IgG4 (IgG4; [1]): 10% | % IgG Capture - Batch Binding, Human IgG1 (human IgG1; [1]): 38% | % IgG Capture - Batch Binding, Human IgG (human IgG; Table 11, unfractionated IgG): 30% | % IgG Capture - Batch Binding, Human IgG2 (human IgG2; [1]): 11% | % IgG Capture - Batch Binding, Mouse IgG (mouse IgG; Table 11, unfractionated IgG): 2% | % IgG Capture - Batch Binding, Bovine IgG (bovine IgG; Table 11, unfractionated IgG): 0% | % IgG Capture - Batch Binding, Goat IgG (goat IgG; Table 11, unfractionated IgG): 0% | Kd (human plasma IgG3; 10 mM Sodium Bicarbonate, 500 mM Sodium Chloride, pH 9.5, read-out: KD (μM) IgG3 pH 9.5 + salt): > 10 µM | Kd (human plasma IgG3; 10 mM Sodium Bicarbonate, pH 9.5, read-out: KD (μM) IgG3 pH 9.5 − salt): > 10 µM | Kd (human plasma IgG3; 10 mM Sodium Citrate, 500 mM Sodium Chloride, pH 4.0, read-out: KD (μM) IgG3 pH 4.0 + salt): 0.2 µM | Kd (human plasma IgG3; 10 mM Sodium Citrate, pH 4.0, read-out: KD (μM) IgG3 pH 4.0 − salt): ~0.01 µM and 0.01 µM | Kd (human plasma IgG4; 10 nM Tris-HCl, 500 mM Sodium Chloride, pH 7.5, read-out: KD (μM) IgG4 pH 7.5 + salt): > 10 µM | Kd (human plasma IgG4; 10 mM Sodium Bicarbonate, 500 mM Sodium Chloride, pH 9.5, read-out: KD (μM) IgG4 pH 9.5 + salt): > 10 µM | Kd (human plasma IgG4; 10 mM Sodium Bicarbonate, pH 9.5, read-out: KD (μM) IgG4 pH 9.5 − salt): > 10 µM | Kd (human plasma IgG4; 10 mM Sodium Citrate, 500 mM Sodium Chloride, pH 4.0, read-out: KD (μM) IgG4 pH 4.0 + salt): > 10 µM | Kd (human plasma IgG4; 10 mM Sodium Citrate, pH 4.0, read-out: KD (μM) IgG4 pH 4.0 − salt): > 10 µM | Kd (human plasma IgG4; 10 mM Tris-HCl, pH 7.5, read-out: KD (μM) IgG4 pH 7.5 − salt): > 10 µM | Kd (human plasma IgG1; 10 nM Tris-HCl, 500 mM Sodium Chloride, pH 7.5, read-out: KD (μM) IgG1 pH 7.5 + salt): > 10 µM | Kd (human plasma IgG1; 10 mM Sodium Bicarbonate, 500 mM Sodium Chloride, pH 9.5, read-out: KD (μM) IgG1 pH 9.5 + salt): > 10 µM | Kd (human plasma IgG1; 10 mM Sodium Bicarbonate, pH 9.5, read-out: KD (μM) IgG1 pH 9.5 − salt): > 10 µM | Kd (human plasma IgG1; 10 mM Sodium Citrate, 500 mM Sodium Chloride, pH 4.0, read-out: KD (μM) IgG1 pH 4.0 + salt): ~2 µM and 2 µM | Kd (human plasma IgG1; 10 mM Sodium Citrate, pH 4.0, read-out: KD (μM) IgG1 pH 4.0 − salt): ~2 µM | Kd (human plasma IgG2; 10 nM Tris-HCl, 500 mM Sodium Chloride, pH 7.5, read-out: KD (μM) IgG2 pH 7.5 + salt): > 10 µM | Kd (human plasma IgG2; 10 mM Sodium Bicarbonate, 500 mM Sodium Chloride, pH 9.5, read-out: KD (μM) IgG2 pH 9.5 + salt): > 10 µM | Kd (human plasma IgG2; 10 mM Sodium Bicarbonate, pH 9.5, read-out: KD (μM) IgG2 pH 9.5 − salt): > 10 µM | Kd (human plasma IgG2; 10 mM Sodium Citrate, 500 mM Sodium Chloride, pH 4.0, read-out: KD (μM) IgG2 pH 4.0 + salt): ~2 µM and 2 µM | Kd (human plasma IgG2; 10 mM Sodium Citrate, pH 4.0, read-out: KD (μM) IgG2 pH 4.0 − salt): ~2 µM

Ac-GDNPMCWKKSWWEDAYCINHGTPGPEGGGK-NH2 (not fully specified (bridges); printed as Ac-GDNPMCWKKSWWEDAYCINHGTPGPEGGGK-NH2; cysteine pairing not given here) [DX596]
hIgG3 elution pH 2.5 (% of Total Load) (IgG3; Table 13): 0% | hIgG3 elution pH 3.5 (% of Total Load) (IgG3; Table 13): 0% | hIgG3 elution pH 4.5 (% of Total Load) (IgG3; Table 13): 0% | hIgG3 elution pH 5.5 (% of Total Load) (IgG3; Table 13): 0% | hIgG3 elution pH 9.0 (% of Total Load) (IgG3; Table 13): 0% | hIgG3 elution pH 9.5 (% of Total Load) (IgG3; Table 13): 0% | hIgG3 Bound (% of Total Load) (IgG3; [2]): 0% | hIgG4 elution pH 2.5 (% of Total Load) (IgG4; Table 13): 44% | hIgG4 elution pH 3.5 (% of Total Load) (IgG4; Table 13): 61% | hIgG4 elution pH 4.5 (% of Total Load) (IgG4; Table 13): 17% | hIgG4 elution pH 5.5 (% of Total Load) (IgG4; Table 13): 2% | hIgG4 elution pH 9.0 (% of Total Load) (IgG4; Table 13): 55% | hIgG4 elution pH 9.5 (% of Total Load) (IgG4; Table 13): 67% | hIgG4 Bound (% of Total Load) (IgG4; [2]): 65% | hIgG1 elution pH 2.5 (% of Total Load) (human IgG1; Table 13): 66% | hIgG1 elution pH 3.5 (% of Total Load) (human IgG1; Table 13): 78% | hIgG1 elution pH 4.5 (% of Total Load) (human IgG1; Table 13): 61% | hIgG1 elution pH 5.5 (% of Total Load) (human IgG1; Table 13): 3% | hIgG1 elution pH 9.0 (% of Total Load) (human IgG1; Table 13): 62% | hIgG1 elution pH 9.5 (% of Total Load) (human IgG1; Table 13): 58% | hIgG1 Bound (% of Total Load) (human IgG1; [2]): 87% | % IgG Capture - Batch Binding, Human IgG (human IgG; [3]): 72% | hIgG2 elution pH 2.5 (% of Total Load) (human IgG2; Table 13): 71% | hIgG2 elution pH 3.5 (% of Total Load) (human IgG2; Table 13): 92% | hIgG2 elution pH 4.5 (% of Total Load) (human IgG2; Table 13): 44% | hIgG2 elution pH 5.5 (% of Total Load) (human IgG2; Table 13): 3% | hIgG2 elution pH 9.0 (% of Total Load) (human IgG2; Table 13): 58% | hIgG2 elution pH 9.5 (% of Total Load) (human IgG2; Table 13): 64% | hIgG2 Bound (% of Total Load) (human IgG2; [2]): 81% | % IgG Capture - Batch Binding, Mouse IgG (mouse IgG; [3]): 5% | % IgG Capture - Batch Binding, Bovine IgG (bovine IgG; [3]): 5% | % IgG Capture - Batch Binding, Goat IgG (goat IgG; [3]): 8%
